Reference: patent publication US8383647B2, “Quinoline derivative” (Takeda Pharmaceutical Company Limited, priority 2009, dated 2013)

Tests used:
HERG = target: T1, HERG (Homo sapiens, UniProt Q12809); experiment: Evaluation of HERG inhibitory activity (whole-cell patch clamp, HERG.T.HEK cells); type: cell-based; conditions: peak tail current
T1 construct: host or cells: HERG.T.HEK (HEK cells, Geneticin-selected)
Source text: MEM medium, MEM nonessential amino acid solution, sodium pyruvate solution and G418 sulfate solution (Geneticin) were purchased from Invitrogen Corporation (Carlsbad, Calif.). Bovine serum albumin (BSA, Fatty Acid Free) was a product of Wako Pure Chemical Industries, Ltd. (Osaka, Japan). Fetal bovine serum (FCS) was a product of Trau Scientific Ltd. (Melbourne, Australia).
As HERG expression cell HERG.T.HEK, the cell obtained from Wisconsin ALUMNI Research Foundation was used. HERG.T.HEK was maintained and passaged at 37° C. in the presence of 5% CO2 using an MEM medium containing 10% FCS, 1 mM MEM nonessential amino acid, 1 mM sodium pyruvate and 500 μg/ml Geneticin.
80-90% confluent cells were collected by a trypsin treatment and plated on an IVF dish (Falcon, Franklin Lakes, N.J.). After 2-3 hr, cells were adhered to a glass electrode (resistance value 2-3 MΩ) filled with an electrode internal fluid (7 mM NaCl, 130 mM KCl, 1 mM MgCl2, 5 mM HEPES, 5 mM EGTA, 5 mM ATP-Na: pH 7.2) while perfusing with an extracellular fluid (137 mM NaCl, 4 mM KCl, 1 mM MgCl2, 1.8 mM CaCl2, 10 mM HEPES, 11 mM dextrose: pH 7.4), using a patch clamp amplifier AXOPATCH 200B (Axon instruments, Foster City, Calif.), whereby formation of whole-cell configuration and stimulation by voltage clamp protocol were performed (holding potential −75 mV, primary voltage 10 mV: 0.5 sec, secondary voltage −40 mV: 0.5 sec, stimulation frequency 5 sec (Example 31 and Example 50) or 10 sec (Comparative Example 1 and Comparative Example 2). A preliminary stimulation was applied and the HERG electric current value (peak tail current) was measured when the electric current waveform was stabilized.
For measurement of the HERG electric current with addition of the test compound, the cells were first perfused with the extracellular fluid and, when the waveform was stabilized, the cells were perfused with an extracellular fluid containing 10 μm of a test compound. When the electric current waveform was stabilized under respective perfuse conditions, the HERG electric current was measured.
The HERG electric current inhibitory rate (%) of the test compound was calculated with the HERG electric current value without addition of the test compound as 100%.

HepG2 cells = experiment: Evaluation of PLsis (NBD-PE uptake); type: cell-based; conditions: 24 hr exposure, relative to 10 μM Amiodarone, maximum value per unit concentration
Experimental: DMEM medium, L-glutamine, penicillin-streptomycin, pyruvic acid, and N-(7-nitrobenz-2-oxa-1,3-diazol-4-yl)-1,2-hexadecanoyl-sn-glycero-3-phosphoethanolamine triethylammonium salt (NBD-PE) were purchased from Invitrogen Corporation. As bovine serum albumin (BSA), a product of Thermo Trace Ltd. (Melbourne, Australia) was used, and as Amiodarone, a product of ICN (Costa Mesa, Calif.) was used. A test compound was used in the form of a 10 mM DMSO solution.
FBS was added at a final concentration of 5 vol % to DMEM medium supplemented with L-glutamine, pyruvic acid and penicillin-streptomycin and subjected to the experiment. Culture was performed using 5% carbon dioxide gas-95% air as a gas phase in a CO2 incubator at 37° C. HepG2 cells were suspended in a culture medium at 50×10^4 cells/mL, plated in a 96 well plate at 50 μL/well and precultured for 24 hr. After preculture, the culture medium was removed, a culture medium containing 60 μm NBD-PE was added at 50 μL/well, and a culture medium containing 0, 6 μM or 20 μM test compounds were each added at 50 μL/well to HepG2 cells, and the cells were cultured for 24 hr. As a positive control, Amiodarone was used at a final concentration of 10 μM.
After exposure to the test compound for 24 hr, the fluorescence intensity (Ex. 485 nm, Em. 538 nm) of NBD-PE uptaken by the cells was measured by a fluorometer. The measurement value with addition of 0 μM test compound solution was subtracted as a blank, a relative value to the measurement value with addition of 10 μm Amiodarone was calculated, and the maximum value per unit concentration of the test compound was obtained as a phospholipidosis (PLsis) induction potential.

human SLC-1 = human SLC-1 (Homo sapiens, UniProt Q99705); experiment: MCH receptor antagonistic activity (inhibitory activity, Experimental Example 1); type: biochemical
human SLC-1, sequence (Q99705 whole entry): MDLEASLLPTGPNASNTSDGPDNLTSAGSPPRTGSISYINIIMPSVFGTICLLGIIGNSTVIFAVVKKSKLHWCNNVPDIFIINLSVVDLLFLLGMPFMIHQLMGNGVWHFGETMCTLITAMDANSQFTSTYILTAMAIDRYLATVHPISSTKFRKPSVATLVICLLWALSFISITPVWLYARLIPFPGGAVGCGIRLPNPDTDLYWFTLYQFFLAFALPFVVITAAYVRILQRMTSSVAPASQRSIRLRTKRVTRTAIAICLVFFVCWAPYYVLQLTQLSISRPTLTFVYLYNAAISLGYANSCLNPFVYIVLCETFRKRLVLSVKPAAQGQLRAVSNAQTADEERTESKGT

rat SLC-1 = rat SLC-1 (Rattus norvegicus, UniProt P97639); experiment: as above; type: biochemical
rat SLC-1, sequence (P97639 whole entry): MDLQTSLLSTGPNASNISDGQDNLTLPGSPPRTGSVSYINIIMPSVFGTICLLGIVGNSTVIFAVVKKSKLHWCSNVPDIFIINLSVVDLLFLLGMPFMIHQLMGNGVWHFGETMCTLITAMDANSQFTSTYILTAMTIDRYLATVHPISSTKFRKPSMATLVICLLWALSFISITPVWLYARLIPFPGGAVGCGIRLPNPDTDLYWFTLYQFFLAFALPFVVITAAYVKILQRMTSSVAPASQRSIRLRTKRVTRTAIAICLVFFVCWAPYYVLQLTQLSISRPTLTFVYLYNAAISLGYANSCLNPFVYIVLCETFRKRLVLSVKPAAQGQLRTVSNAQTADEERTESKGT

T1 sequence (Q12809 whole entry): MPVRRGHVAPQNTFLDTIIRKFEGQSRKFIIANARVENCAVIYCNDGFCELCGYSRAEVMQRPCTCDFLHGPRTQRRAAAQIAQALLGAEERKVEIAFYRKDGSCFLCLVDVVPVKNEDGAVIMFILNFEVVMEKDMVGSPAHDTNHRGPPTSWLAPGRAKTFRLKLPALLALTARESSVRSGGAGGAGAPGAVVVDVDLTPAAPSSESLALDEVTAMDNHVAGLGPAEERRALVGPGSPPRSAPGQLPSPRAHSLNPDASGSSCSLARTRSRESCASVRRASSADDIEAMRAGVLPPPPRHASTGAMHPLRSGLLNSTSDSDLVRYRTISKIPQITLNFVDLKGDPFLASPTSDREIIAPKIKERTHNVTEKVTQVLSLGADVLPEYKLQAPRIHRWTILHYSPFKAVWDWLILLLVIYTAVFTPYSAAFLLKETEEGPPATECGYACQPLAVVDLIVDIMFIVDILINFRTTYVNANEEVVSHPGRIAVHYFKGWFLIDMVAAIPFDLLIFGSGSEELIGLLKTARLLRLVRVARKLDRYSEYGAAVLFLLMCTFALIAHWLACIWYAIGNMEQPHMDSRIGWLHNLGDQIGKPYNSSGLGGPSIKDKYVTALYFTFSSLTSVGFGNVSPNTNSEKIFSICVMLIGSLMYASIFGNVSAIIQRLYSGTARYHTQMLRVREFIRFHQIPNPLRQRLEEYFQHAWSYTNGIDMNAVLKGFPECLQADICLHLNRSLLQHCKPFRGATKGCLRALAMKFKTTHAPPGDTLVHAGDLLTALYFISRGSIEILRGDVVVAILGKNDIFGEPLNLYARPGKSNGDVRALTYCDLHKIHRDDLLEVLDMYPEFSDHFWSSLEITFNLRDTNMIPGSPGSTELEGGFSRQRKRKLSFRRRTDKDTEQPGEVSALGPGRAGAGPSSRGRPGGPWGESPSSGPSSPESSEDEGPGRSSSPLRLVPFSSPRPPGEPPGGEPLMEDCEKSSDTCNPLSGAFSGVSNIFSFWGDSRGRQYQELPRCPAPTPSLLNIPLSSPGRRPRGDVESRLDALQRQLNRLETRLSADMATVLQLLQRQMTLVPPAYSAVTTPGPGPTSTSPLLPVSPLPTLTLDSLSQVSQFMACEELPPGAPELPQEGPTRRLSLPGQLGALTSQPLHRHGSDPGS

Row | SMILES | HERG electric current inhibitory rate (%) of 10 μM compound (HERG) [%] | PLsis induction potential (HepG2 cells) | IC50 (human SLC-1) [nM] | IC50 (rat SLC-1) [nM] | melting point [°C]
1 | Cc1c(NC(=O)c2ccc(OCC3CC3)cc2)ccc2cc(CN[C@H]3CC[C@H](O)CC3)cnc12 [Com. Ex. 1, 4-(cyclopropylmethoxy)-N-[3-[[(trans-4-hydroxycyclohexyl)amino]methyl]-8-methylquinolin-7-yl]benzamide, reference compound] | 58 | 23.5 |  |  | 
2 | Cc1c(NC(=O)c2ccc(OCC3CC3)cc2)ccc2cc(CNC3CCC(C)(O)CC3)cnc12 (stereo not drawn) [Com. Ex. 2, 4-(cyclopropylmethoxy)-N-[3-[[(trans-4-hydroxy-4-methylcyclohexyl)amino]methyl]-8-methylquinolin-7-yl]benzamide, reference compound] | 44.9 | 27.8 |  |  | 
3 | Cc1c(NC(=O)c2ccc(OC[C@@H]3CCCO3)cc2)ccc2cc(CN[C@H]3CCCC[C@@H]3O)cnc12 [Example 47, N-[3-({[(1S,2S)-2-hydroxycyclohexyl]amino}methyl)-8-methylquinolin-7-yl]-4-[(2S)-tetrahydrofuran-2-ylmethoxy]benzamide] |  |  | 6.8 | 7.9 | 157 to 158
4 | Cc1c(NC(=O)c2ccc(OC[C@@H]3CCCO3)cc2)ccc2cc(CN[C@H]3CC[C@H](O)CC3)cnc12 [Example 48, N-(3-{[(trans-4-hydroxycyclohexyl)amino]methyl}-8-methylquinolin-7-yl)-4-[(2S)-tetrahydrofuran-2-ylmethoxy]benzamide] |  |  | 9.1 | 8.3 | 183 to 184
5 | Cc1c(NC(=O)c2ccc(OC[C@@H]3CCCO3)cc2)ccc2cc(CNCCOC(C)C)cnc12 [Example 49, N-[8-methyl-3-({[2-(1-methylethoxy)ethyl]amino}methyl)quinolin-7-yl]-4-[(2S)-tetrahydrofuran-2-ylmethoxy]benzamide] |  |  | 4.8 | 7.2 | 111 to 113
6 | Cc1c(NC(=O)c2ccc(OC[C@@H]3CCCO3)cc2)ccc2cc(CN[C@H]3CC[C@@](C)(O)CC3)cnc12 [Example 52, N-(3-{[(cis-4-hydroxy-4-methylcyclohexyl)amino]methyl}-8-methylquinolin-7-yl)-4-[(2S)-tetrahydrofuran-2-ylmethoxy]benzamide] |  |  | 6.5 | 9.5 | 159 to 161
7 | CCC(CC)NCc1cnc2c(C)c(NC(=O)c3ccc(OC[C@@H]4CCCO4)cc3)ccc2c1 [Example 54, N-(3-{[(1-ethylpropyl)amino]methyl}-8-methylquinolin-7-yl)-4-[(2S)-tetrahydrofuran-2-ylmethoxy]benzamide] |  |  | 5.5 | 6.1 | 113 to 115
8 | CC[C@@H](C)NCc1cnc2c(C)c(NC(=O)c3ccc(OC[C@@H]4CCCO4)cc3)ccc2c1 [Example 55, N-[8-methyl-3-({[(1R)-1-methylpropyl]amino}methyl)quinolin-7-yl]-4-[(2S)-tetrahydrofuran-2-ylmethoxy]benzamide] |  |  | 6.8 | 8.8 | 118 to 119
9 | CC[C@H](C)NCc1cnc2c(C)c(NC(=O)c3ccc(OC[C@@H]4CCCO4)cc3)ccc2c1 [Example 56, N-[8-methyl-3-({[(1S)-1-methylpropyl]amino}methyl)quinolin-7-yl]-4-[(2S)-tetrahydrofuran-2-ylmethoxy]benzamide] |  |  | 6.4 | 9.1 | 122 to 123
10 | Cc1c(NC(=O)c2ccc(OC[C@@H]3CCCO3)cc2)ccc2cc(CNC3CCC3)cnc12 [Example 57, N-{3-[(cyclobutylamino)methyl]-8-methylquinolin-7-yl}-4-[(2S)-tetrahydrofuran-2-ylmethoxy]benzamide] |  |  | 9.8 | 17 | 142 to 144
11 | Cc1c(NC(=O)c2ccc(OC[C@@H]3CCCO3)cc2)ccc2cc(CN[C@H](C)C(C)(C)C)cnc12 [Example 58, N-[8-methyl-3-({[(1R)-1,2,2-trimethylpropyl]amino}methyl)quinolin-7-yl]-4-[(2S)-tetrahydrofuran-2-ylmethoxy]benzamide] |  |  | 6.8 | 11 | 140 to 141
12 | Cc1c(NC(=O)c2ccc(OCC3CCOC3)cc2)ccc2cc(CNCC(C)(C)C)cnc12 (stereo not shown) [Example 62, N-(3-{[(2,2-dimethylpropyl)amino]methyl}-8-methylquinolin-7-yl)-4-(tetrahydrofuran-3-ylmethoxy)benzamide] |  |  | 2.2 | 2.7 | 129
13 | Cc1c(NC(=O)c2ccc(OCC3CCOC3)cc2)ccc2cc(CNCC3CCOCC3)cnc12 (stereo not shown) [Example 63, N-(8-methyl-3-{[(tetrahydro-2H-pyran-4-ylmethyl)amino]methyl}quinolin-7-yl)-4-(tetrahydrofuran-3-ylmethoxy)benzamide] |  |  | 3.7 | 4.5 | 122 to 123
14 | Cc1c(NC(=O)c2ccc(OC[C@@H]3CCCO3)cc2F)ccc2cc(CNCC(C)(C)O)cnc12 [Example 67, 2-fluoro-N-(3-{[(2-hydroxy-2-methylpropyl)amino]methyl}-8-methylquinolin-7-yl)-4-[(2S)-tetrahydrofuran-2-ylmethoxy]benzamide] |  |  | 7.8 | 11 | 167 to 168
15 | Cc1c(NC(=O)c2ccc(OC[C@@H]3CCCO3)cc2F)ccc2cc(CNCC(C)(C)C)cnc12 [Example 68, N-(3-{[(2,2-dimethylpropyl)amino]methyl}-8-methylquinolin-7-yl)-2-fluoro-4-[(2S)-tetrahydrofuran-2-ylmethoxy]benzamide] |  |  | 3.1 | 2.8 | 134 to 135
16 | Cc1c(NC(=O)c2ccc(OC[C@@H]3CCCO3)cc2F)ccc2cc(CN[C@H]3CC[C@](C)(O)CC3)cnc12 [Example 69, 2-fluoro-N-(3-{[(trans-4-hydroxy-4-methylcyclohexyl)amino]methyl}-8-methylquinolin-7-yl)-4-[(2S)-tetrahydrofuran-2-ylmethoxy]benzamide] |  |  | 6.1 | 7.1 | 171 to 172
17 | Cc1c(NC(=O)c2ccc(OC[C@@H]3CCCO3)cc2F)ccc2cc(CNCC(C)C)cnc12 [Example 70, 2-fluoro-N-(8-methyl-3-{[(2-methylpropyl)amino]methyl}quinolin-7-yl)-4-[(2S)-tetrahydrofuran-2-ylmethoxy]benzamide] |  |  | 2.7 | 3.2 | 133 to 134
18 | CCCNCc1cnc2c(C)c(NC(=O)c3ccc(OC[C@@H]4CCCO4)cc3F)ccc2c1 [Example 71, 2-fluoro-N-{8-methyl-3-[(propylamino)methyl]quinolin-7-yl}-4-[(2S)-tetrahydrofuran-2-ylmethoxy]benzamide] |  |  | 5 | 8 | 120 to 121
19 | Cc1c(NC(=O)c2ccc(OC[C@@H]3CCCO3)cc2)ccc2cc(CN3CCC(C)(O)CC3)cnc12 [Example 72, N-{3-[(4-hydroxy-4-methylpiperidin-1-yl)methyl]-8-methylquinolin-7-yl}-4-[(2S)-tetrahydrofuran-2-ylmethoxy]benzamide] |  |  | 4.5 | 4.3 | 169 to 174
